From ChEMBL document CHEMBL1201862, “PubChem BioAssay data set” (2004)
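A five-concentration, 48-hour dose response in 96-well plates underlies each endpoint, interpolated linearly between surrounding concentrations. GI50 marks 50% less growth.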 Active and inactive are the calls of the source. Rule as the data show it: active = GI50 up to about 1.1 µM and inactive = higher.

Tests used:
Experiment in all cases: DTP human tumour cell line panel, 48 h
[1] = tested on: SF-539
[2] = tested on: HCT-116
[3] = tested on: ACHN
[4] = tested on: UACC-62
[5] = tested on: SN12C
[6] = tested on: Hs-578T
[7] = tested on: UACC-257
[8] = tested on: COLO 205
[9] = tested on: SF-268
[10] = tested on: SW-620
[11] = tested on: HOP-92
[12] = tested on: A549
[13] = tested on: M14
[14] = tested on: NCI-H522
[15] = tested on: NCI-H23
[16] = tested on: MDA-MB-231
[17] = tested on: CCRF-CEM
[18] = tested on: KM12
[19] = tested on: SNB-19
[20] = tested on: OVCAR-5
[21] = tested on: MDA-MB-435
[22] = tested on: MOLT-4
[23] = tested on: CAKI-1
[24] = tested on: RXF 393
[25] = tested on: OVCAR-8
[26] = tested on: SK-MEL-2
[27] = tested on: SK-MEL-5
[28] = tested on: U-251
[29] = tested on: IGROV-1
[30] = tested on: HCC 2998
[31] = tested on: PC-3
[32] = tested on: Malme-3M
[33] = tested on: A498
[34] = tested on: T47D
[35] = tested on: SK-OV-3
[36] = tested on: LOX IMVI
[37] = tested on: NCI/ADR-RES
[38] = tested on: 786-0
[39] = tested on: OVCAR-3
[40] = tested on: SNB-75
[41] = tested on: MCF7
[42] = tested on: DU-145
[43] = tested on: MDA-N
[44] = tested on: TK-10
[45] = tested on: UO-31
[46] = tested on: NCI-H226
[47] = tested on: BT-549
[48] = tested on: OVCAR-4
[49] = tested on: SK-MEL-28
[50] = tested on: SF-295
[51] = tested on: HCT-15
[52] = tested on: EKVX
[53] = tested on: HOP-62
[54] = tested on: RPMI-8226
[55] = tested on: K562
[56] = tested on: HT-29
[57] = tested on: NCI-H460
[58] = tested on: HL-60

Compound: COC(=O)[C@H](Cc1ccccc1)NC(=O)N(CCN(CCC#N)C(=O)N[C@H](C(=O)OC)C(C)C)c1ccccc1
- GI50 [1]: > 100 µM (inactive)
- GI50 [2]: > 100 µM (inactive)
- GI50 [3]: > 100 µM (inactive)
- GI50 [4]: 48.5 µM (inactive)
- GI50 [5]: > 100 µM (inactive)
- GI50 [6]: > 100 µM (inactive)
- GI50 [7]: 32.1 µM (inactive)
- GI50 [8]: > 100 µM (inactive)
- GI50 [9]: > 100 µM (inactive)
- GI50 [10]: > 100 µM (inactive)
- GI50 [11]: 22.8 µM (inactive)
- GI50 [12]: > 100 µM (inactive)
- GI50 [13]: > 100 µM (inactive)
- GI50 [14]: 30.3 µM (inactive)
- GI50 [15]: > 100 µM (inactive)
- GI50 [16]: > 100 µM (inactive)
- GI50 [17]: 33.7 µM (inactive)
- GI50 [18]: > 100 µM (inactive)
- GI50 [19]: > 100 µM (inactive)
- GI50 [20]: > 100 µM (inactive)
- GI50 [21]: 85.3 µM (inactive)
- GI50 [22]: 24.3 µM (inactive)
- GI50 [23]: > 100 µM (inactive)
- GI50 [24]: > 100 µM (inactive)
- GI50 [25]: > 100 µM (inactive)
- GI50 [26]: 41.8 µM (inactive)
- GI50 [27]: 52.6 µM (inactive)
- GI50 [28]: > 100 µM (inactive)
- GI50 [29]: 57.5 µM (inactive)
- GI50 [30]: > 100 µM (inactive)
- GI50 [31]: > 100 µM (inactive)
- GI50 [32]: 43.7 µM (inactive)
- GI50 [33]: > 100 µM (inactive)
- GI50 [34]: 49.4 µM (inactive)
- GI50 [35]: > 100 µM (inactive)
- GI50 [36]: > 100 µM (inactive)
- GI50 [37]: > 100 µM (inactive)
- GI50 [38]: > 100 µM (inactive)
- GI50 [39]: > 100 µM (inactive)
- GI50 [40]: > 100 µM (inactive)
- GI50 [41]: > 100 µM (inactive)
- GI50 [42]: > 100 µM (inactive)
- GI50 [43]: > 100 µM (inactive)
- GI50 [44]: > 100 µM (inactive)
- GI50 [45]: > 100 µM (inactive)
- GI50 [46]: > 100 µM (inactive)
- GI50 [47]: > 100 µM (inactive)
- GI50 [48]: 53.3 µM (inactive)
- GI50 [49]: > 100 µM (inactive)
- GI50 [50]: > 100 µM (inactive)
- GI50 [51]: > 100 µM
- GI50 [52]: > 100 µM (inactive)
- GI50 [53]: > 100 µM (inactive)
- GI50 [54]: 33.2 µM (inactive)

Compound: C=CCNC(NCC=C)=C(C(Cl)=C(Cl)Cl)[N+](=O)[O-]
- GI50 [1]: 21.3 µM (inactive)
- GI50 [2]: 30.4 µM (inactive)
- GI50 [3]: 31.8 µM (inactive)
- GI50 [55]: 16.7 µM (inactive)
- GI50 [4]: > 100 µM (inactive)
- GI50 [5]: 59.2 µM (inactive)
- GI50 [6]: 25.4 µM (inactive)
- GI50 [7]: > 100 µM (inactive)
- GI50 [8]: 19.7 µM (inactive)
- GI50 [9]: 53.8 µM (inactive)
- GI50 [10]: 22.9 µM (inactive)
- GI50 [12]: > 100 µM (inactive)
- GI50 [13]: 31.9 µM (inactive)
- GI50 [15]: 34.1 µM (inactive)
- GI50 [16]: > 100 µM (inactive)
- GI50 [17]: 26.5 µM (inactive)
- GI50 [18]: 65.5 µM (inactive)
- GI50 [19]: > 100 µM (inactive)
- GI50 [20]: > 100 µM (inactive)
- GI50 [21]: 32 µM (inactive)
- GI50 [22]: 31.5 µM (inactive)
- GI50 [23]: 30.5 µM (inactive)
- GI50 [25]: 16.6 µM (inactive)
- GI50 [26]: > 100 µM (inactive)
- GI50 [28]: > 100 µM (inactive)
- GI50 [30]: > 100 µM (inactive)
- GI50 [31]: 51.2 µM (inactive)
- GI50 [56]: 54.6 µM (inactive)
- GI50 [32]: 16.4 µM (inactive)
- GI50 [57]: > 100 µM (inactive)
- GI50 [33]: > 100 µM (inactive)
- GI50 [34]: 30.5 µM (inactive)
- GI50 [35]: > 100 µM (inactive)
- GI50 [37]: 43.2 µM (inactive)
- GI50 [38]: 34.9 µM (inactive)
- GI50 [39]: 26.2 µM (inactive)
- GI50 [40]: 89.1 µM (inactive)
- GI50 [41]: 35.9 µM (inactive)
- GI50 [42]: 78.3 µM (inactive)
- GI50 [43]: 32.5 µM (inactive)
- GI50 [45]: 37.5 µM (inactive)
- GI50 [46]: > 100 µM (inactive)
- GI50 [47]: 26 µM (inactive)
- GI50 [48]: 31.8 µM (inactive)
- GI50 [49]: 79.3 µM (inactive)
- GI50 [50]: > 100 µM (inactive)
- GI50 [51]: 16.8 µM
- GI50 [52]: 67.3 µM (inactive)
- GI50 [53]: > 100 µM (inactive)
- GI50 [54]: 49.1 µM (inactive)

Compound: N#Cc1c(-c2ccccc2)nc(-c2ccccc2)sc1=S
- GI50 [58]: > 100 µM (inactive)
- GI50 [1]: > 100 µM (inactive)
- GI50 [2]: > 100 µM (inactive)
- GI50 [3]: > 100 µM (inactive)
- GI50 [55]: > 100 µM (inactive)
- GI50 [4]: > 100 µM (inactive)
- GI50 [5]: > 100 µM (inactive)
- GI50 [6]: > 100 µM (inactive)
- GI50 [7]: > 100 µM (inactive)
- GI50 [8]: > 100 µM (inactive)
- GI50 [9]: > 100 µM (inactive)
- GI50 [10]: > 100 µM (inactive)
- GI50 [11]: > 100 µM (inactive)
- GI50 [12]: > 100 µM (inactive)
- GI50 [13]: > 100 µM (inactive)
- GI50 [15]: > 100 µM (inactive)
- GI50 [16]: > 100 µM (inactive)
- GI50 [17]: 49.2 µM (inactive)
- GI50 [18]: > 100 µM (inactive)
- GI50 [19]: > 100 µM (inactive)
- GI50 [20]: > 100 µM (inactive)
- GI50 [21]: > 100 µM (inactive)
- GI50 [23]: > 100 µM (inactive)
- GI50 [24]: > 100 µM (inactive)
- GI50 [25]: > 100 µM (inactive)
- GI50 [26]: > 100 µM (inactive)
- GI50 [27]: > 100 µM (inactive)
- GI50 [28]: > 100 µM (inactive)
- GI50 [29]: > 100 µM (inactive)
- GI50 [30]: > 100 µM (inactive)
- GI50 [56]: > 100 µM (inactive)
- GI50 [32]: > 100 µM (inactive)
- GI50 [57]: > 100 µM (inactive)
- GI50 [33]: > 100 µM (inactive)
- GI50 [34]: > 100 µM (inactive)
- GI50 [35]: > 100 µM (inactive)
- GI50 [36]: > 100 µM (inactive)
- GI50 [37]: > 100 µM (inactive)
- GI50 [38]: > 100 µM (inactive)
- GI50 [39]: > 100 µM (inactive)
- GI50 [40]: > 100 µM (inactive)
- GI50 [41]: > 100 µM (inactive)
- GI50 [42]: > 100 µM (inactive)
- GI50 [43]: > 100 µM (inactive)
- GI50 [44]: > 100 µM (inactive)
- GI50 [45]: > 100 µM (inactive)
- GI50 [46]: > 100 µM (inactive)
- GI50 [47]: > 100 µM (inactive)
- GI50 [48]: > 100 µM (inactive)
- GI50 [49]: > 100 µM (inactive)
- GI50 [50]: > 100 µM (inactive)
- GI50 [51]: > 100 µM
- GI50 [52]: > 100 µM (inactive)
- GI50 [53]: > 100 µM (inactive)
- GI50 [54]: > 100 µM (inactive)
